# Where a name gives a salt, the structure may show the parent alone.
# What was measured:
# [1] = target: T1, V1 Recepter (rat liver plasma membrane preparations) (Rattus norvegicus, UniProt P30560); experiment: V1 Recepter binding assay; conditions: [3H]-Arg-vasopressin 2×10^-10 M, 37° C., 10 minutes, pH 8.0, rat liver plasma membrane
# T1 construct: rat liver plasma membrane preparations; from tissue; host or cells: rat liver plasma membranes
# Experimental: Test-1: V1 Recepter binding assay
# By using rat liver plasma membrane preparations prepared according to Ichiraha's method [by Akira Ichihara: J. Bio. Chem., 258, 9283 (1983)], the plasma membrane (50,000 dpm, 2×10^-10 M) of [^3 H]-Arg-vasopressin and a test compound (60 μg, 10^-8 to 10^-4 M) were incubated at 37° C. for 10 minutes in 250 μl (in total volume) of 100 mM Tris-HCl buffer (pH=8.0), containing 5 mM MgCl2, 1 mM EDTA and 0.1% BSA. After the incubation, the mixture was filtered three times by using a glass filter (GF/F) so as to separate the membrane preparation by combining with vasopressin and then washed with the buffer (5 ml). This glass filter was taken out and mixed with a liquid of scintillation cocktail. The amount of [^3 H]-vasopressin combining with the membrane was measured by liquid scintillation counter and the rate of inhibitory effect of the test compound was calculated according to the following equation: […]
# C1 : the amount of [^3 H]-vasopressin combining with the membrane in the presence of the test compound of a known amount,
# (§1) C0 : the amount of [^3 H]-vasopressin combining with the membrane in the absence of the test compound,
# B1 : the amount of [^3 H]-vasopressin combining with the membrane in the presence of the excess amount of vasopressin (10^-6 M).
# The results are expressed as IC50 value, which is the concentration of the test compound required to achieve the inhitory effect in the rate of 50% and are shown in the following Table 156.
# [2] = target: T2, V2 Recepter (rat kidney plasma membrane preparations) (Rattus norvegicus, UniProt Q00788); experiment: V2 Recepter binding assay; conditions: [3H]-Arg-vasopressin 4×10^-10 M, 4° C., pH 8.0, rat kidney plasma membrane
# T2 construct: rat kidney plasma membrane preparations; from tissue; host or cells: rat kidney plasma membranes
# Experimental: Test 2: V2 Recepter binding assay
# By using rat kidney plasma membrane preparations prepared according to Hechter's method [by O. Hechter: J. Bio. Chem., 2.53, 3211 (1978)], the plasma membrane (100,000 dpm, 4×10^-10 M) of [^3 H]-Arg-vasopressin and a test compound (0.6 mg, 10^-10 to 10^-5 M) were incubated at 4° C. for 3 hours in 250 μl (in total volume) of 100 mM Tris-HCl buffer (pH=8.0), containing, 5 mM MgCl2, 1 mM EDTA and 0.1% BSA. After the incubation, the mixture, the mixture was filtered by using a glass filter (GF/F) so as to separate the membrane preparation combining with vasopressin, then washed twice with the buffer (5 ml). This glass filter was taken out and mixed with liquid scintillation cocktail. The amount of [^3 H]-vasopressin combining with the membrane was measured by a liquid scintillation counter and the rate of inhibitory effect of the test compound was calculated according to the following equation: Rate of the inhibitory
# C1 : the amount of [^3 H]-vasopressin combining with the membrane in the presence of the testcompound of a known amount,
# as §1
# B1 : the amount of [^3 H]-vasopressin combining with the mebrane in the presence of the excess amount of vasopressin (10^-6 M).
# The results are expressed as IC50 value, which is the concentration of the test compound required to achieve the inhibitory effect in the rate of 50%, and are shown in the following Table 157.
# [3] = target: T3, Oxytocin receptor (uterin muscle membrane preparation) (Rattus norvegicus, UniProt P70536); experiment: Oxytocin receptor binding assay; conditions: [3H]-oxytocin 10^-9 M, 25°, one hour, pH 8.0, uterin muscle membrane, DES-treated
# T3 construct: was homogenized, which was used as a membrane; from tissue; host or cells: uterine muscle membranes from diethylstilbestrol-treated animals
# T3 sequence (P70536 1-388): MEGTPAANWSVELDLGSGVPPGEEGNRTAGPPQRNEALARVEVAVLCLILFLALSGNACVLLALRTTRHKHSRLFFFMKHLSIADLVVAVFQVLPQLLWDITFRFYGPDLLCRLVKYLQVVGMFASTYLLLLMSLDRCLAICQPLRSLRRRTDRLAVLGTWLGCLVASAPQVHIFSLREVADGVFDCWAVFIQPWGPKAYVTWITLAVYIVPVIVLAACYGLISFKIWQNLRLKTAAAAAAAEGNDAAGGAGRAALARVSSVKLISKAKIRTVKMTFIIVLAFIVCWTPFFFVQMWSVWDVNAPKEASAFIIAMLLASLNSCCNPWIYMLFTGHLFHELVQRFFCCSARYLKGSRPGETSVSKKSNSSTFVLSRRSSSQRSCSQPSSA
# Experimental: Test-5 Oxytocin receptor binding assay
# In accordance with Chan's method [by W. Y. Chan, et al.: Endocrinology, 126, 2095-2101 (1990)], the uterin muscle benn injected subcutaneously with diethylstilbe-sterol (DES) the day before and was homogenized, which was used as a membrane prepara tion. The membrane preparation (0.2 mg), [^3 H]-oxytocin (100,000 dpm, 10^-9 M), a test compound (10^-9 to 10^-5 M) were incubated at 25°. for one hour in 100 mM Tris-HCl buffer (pH=8.0, 250 μl) containing 5 mM MgCl2, 1 mM EDTA and 0.1% BSA. The mixture was filtered through a glass filter (GF/F) so as to separate the membrane preparation combining with [^3 H]-oxytocin, then, was washed twicw with the buffer (5 ml). The glass filter was put into a vial and mixed with Aquasole (a liquid scintillation cocktail). The amount of [^3 H]-oxytocin combining w ith the membrane was measured by a liquid scintillation counter. The rate of the inhibitory effect of the test compound was calculated according to the equation as follows: […]
# C1 : the amount of [^3 H]-oxytocin combining with the membrane in the presence of a test compound (in known amount),
# C0 : the amount of [^3 H]-oxytocin combinig with the membrane in the absence of a test compound,
# B: the amount of [^3 H]-oxytocin combining with the membrane in the presence of the excess amount of oxytocin (5×10^-6 M).
# The results are expressed as IC50 values, which is the concentration of the test compound required to achieve the inhibitory effect in the rate of 50%.
# T2 sequence (Q00788 whole entry): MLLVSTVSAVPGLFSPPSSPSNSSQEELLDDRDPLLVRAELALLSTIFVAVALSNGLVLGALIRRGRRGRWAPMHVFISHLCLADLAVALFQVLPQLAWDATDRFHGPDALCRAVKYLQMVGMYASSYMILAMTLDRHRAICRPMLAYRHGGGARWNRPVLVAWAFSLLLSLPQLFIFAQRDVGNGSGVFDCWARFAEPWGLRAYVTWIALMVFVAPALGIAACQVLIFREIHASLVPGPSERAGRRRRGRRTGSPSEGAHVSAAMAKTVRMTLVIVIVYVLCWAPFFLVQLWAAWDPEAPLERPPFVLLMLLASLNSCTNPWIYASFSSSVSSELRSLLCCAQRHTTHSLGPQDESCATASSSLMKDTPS
# T1 sequence (P30560 whole entry): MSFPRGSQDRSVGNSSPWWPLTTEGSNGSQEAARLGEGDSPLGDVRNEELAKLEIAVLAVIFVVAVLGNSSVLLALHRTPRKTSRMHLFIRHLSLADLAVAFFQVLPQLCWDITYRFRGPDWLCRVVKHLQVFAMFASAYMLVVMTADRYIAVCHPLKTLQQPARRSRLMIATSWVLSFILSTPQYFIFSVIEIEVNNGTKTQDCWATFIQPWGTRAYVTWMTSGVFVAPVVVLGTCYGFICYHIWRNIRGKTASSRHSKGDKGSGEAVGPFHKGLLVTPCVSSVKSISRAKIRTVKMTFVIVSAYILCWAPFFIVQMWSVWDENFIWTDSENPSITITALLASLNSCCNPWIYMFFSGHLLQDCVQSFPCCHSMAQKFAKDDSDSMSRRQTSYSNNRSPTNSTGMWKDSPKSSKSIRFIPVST
smiles,measurement,setting,value
"C=CCOC1CCCN(C(=O)c2ccc(NC(=O)c3ccccc3C)cc2)c2ccc(Cl)cc21 (stereo not drawn) [Example 64, 5-Allyloxy-7-chloro-1-[4-(2-methylbenzoylamino)benzoyl]-2,3,4,5-tetrahydro-1H-benzoazepine]",IC50,[1],45 nM
"CC(=O)NC1CCN(CCOC2CCCN(C(=O)c3ccc(NC(=O)c4ccccc4Cl)cc3C)c3ccc(Cl)cc32)CC1 (stereo not drawn) [Example 75, 5-[2-(4-Acetylamino-1-piperidinyl)ethoxy]-7-chloro-1-[2-methyl-4-(2-chlorobenzoylamino)benzoyl]-2,3,4,5-tetrahydro-1H-benzoazepine]",IC50,[2],32 nM
"CC(=O)NC1CCN(CCC2CCCN(C(=O)c3ccc(NC(=O)c4ccccc4Cl)cc3C)c3ccc(Cl)cc32)CC1 (stereo not drawn) [Example 76, 5-[2-(4-Acetylamino-1-piperidinyl)ethyl]-7-chloro-1-[2-methyl-4-(2-chlorobenzoylamino)benzoyl]-2,3,4,5-tetrahydro-1H-benzoazepine]",IC50,[2],14 nM
"COc1cc(NC(=O)c2ccccc2C)ccc1C(=O)N1CCC=C(CC(=O)N2CCN(C)CC2)c2cc(F)ccc21 [Example 86, 5-(4-Methyl-1-piperazinyl)carbonylmethyl-7-fluoro-1-[2-methoxy-4-(2-methylbenzoylamino)benzoyl]-2,3,-dihydro-1H-benzoazepine]",IC50,[2],59 nM
Cc1cc(NC(=O)c2ccccc2Cl)ccc1C(=O)N1CCCC(OCCn2cncn2)c2cc(Cl)ccc21 (stereo not drawn) [Example 92],IC50,[2],7.4 nM
"Cc1cc(NC(=O)c2ccccc2Cl)ccc1C(=O)N1CCCC(OCCn2cnnn2)c2cc(Cl)ccc21 (stereo not drawn) [Example 93, 5-[2-(1,2,3,4-Tetrazol-1-yl)ethoxy]-7-chloro-1-[2-methyl-4-(2-chlorobenzoylamino)benzoyl]-2,3,4,5-tetrahydro-1H-benzoazepine]",IC50,[2],14 nM
Cc1cc(NC(=O)c2ccccc2Cl)ccc1C(=O)N1CCCC(CCN2CCOCC2)c2cc(Cl)ccc21 (stereo not drawn) [Example 95],IC50,[2],17 nM
"Cc1cc(NC(=O)c2ccccc2Cl)ccc1C(=O)N1CCCC(CCN2CCCCC2)c2cc(Cl)ccc21 (stereo not drawn) [Example 96, 5-[2-(1-Piperidinyl)ethyl]-7-chloro-1-[2-methyl-4-(2-chlorobenzoylamino)benzoyl]-2,3,4,5-tetrahydro-1H-benzoazepine.cndot.hydrochloride]",IC50,[3],4400 nM
same,IC50,[2],9 nM
"Cc1cc(NC(=O)c2ccccc2Cl)ccc1C(=O)N1CCCC(CCN2CCCC2)c2cc(Cl)ccc21 (stereo not drawn) [Example 97, 5-[2-(1-Pyrrolidinyl)ethyl]-7-chloro-1-[2-methyl-4-(2-chlorobenzoylamino)benzoyl]-2,3,4,5-tetrahydro-1H-benzoazepine.cndot.hydrochloride]",IC50,[3],4070 nM
same,IC50,[2],7.2 nM
Cc1cc(NC(=O)c2ccccc2Cl)ccc1C(=O)N1CCCC(CCn2cnnn2)c2cc(Cl)ccc21 (stereo not drawn) [Example 98],IC50,[2],9 nM
Cc1cc(NC(=O)c2ccccc2Cl)ccc1C(=O)N1CCCC(CCn2ncnn2)c2cc(Cl)ccc21 (stereo not drawn) [Example 99],IC50,[3],2800 nM
same,IC50,[2],12 nM
C=CCN(C)CCC1CCCN(C(=O)c2ccc(NC(=O)c3ccccc3Cl)cc2C)c2ccc(Cl)cc21 (stereo not drawn) [Example 100],IC50,[3],4040 nM
same,IC50,[2],4.7 nM
"C=CCNCCC1CCCN(C(=O)c2ccc(NC(=O)c3ccccc3Cl)cc2C)c2ccc(F)cc21 (stereo not drawn) [Example 101, 5-(2-Allylaminoethyl)-7-fluoro-1-[2-methyl-4-(2-chlorobenzoylamino)benzoyl]-2,3,4,5-tetrahydro-1H-benzoazepine]",IC50,[3],5300 nM
same,IC50,[2],7 nM
"Cc1cc(NC(=O)c2ccccc2Cl)ccc1C(=O)N1CCCC(CCNC2CC2)c2cc(Cl)ccc21 (stereo not drawn) [Example 102, 5-(2-Cyclopropylaminoethyl)-7-chloro-1-[2-methyl-4-(2-chlorobenzoylamino)benzoyl]-2,3,4,5-tetrahydro-1H-benzoazepine.cndot.hydrochloride]",IC50,[3],2900 nM
same,IC50,[2],7.1 nM
"C#CCNCCC1CCCN(C(=O)c2ccc(NC(=O)c3ccccc3Cl)cc2C)c2ccc(Cl)cc21 (stereo not drawn) [Example 103, 5-(2-Propargylaminoethyl)-7-chloro-1-[2-methyl-4-(2-chlorobenzoylamino)benzoyl]-2,3,4,5-tetrahydro-1H-benzoazepine.cndot.hydrochloride]",IC50,[3],3000 nM
same,IC50,[2],8 nM
"Cc1cc(NC(=O)c2ccccc2Cl)ccc1C(=O)N1CCCC(CCn2cncn2)c2cc(Cl)ccc21 (stereo not drawn) [Example 105, 5-[2-(1,2,4-Triazol-1-yl)ethyl]-7-chloro-1-[2-methyl-4-(2-chlorobenzoylamino)benzoyl]-2,3,4,5-tetrahydro-1H-benzoazepine]",IC50,[2],7.5 nM
"C=CCN(C)CCC1CCCN(C(=O)c2ccc(NC(=O)c3ccccc3Cl)cc2C)c2ccc(F)cc21 (stereo not drawn) [Example 129, 5-[2-(N-Allyl-N-methylamino)ethyl]-7-fluoro-1-[2-methyl-4-(2-chlorobenzoylamino)benzoyl]-2,3,4,5-tetrahydro-1H-benzoazepine]",IC50,[2],12 nM
"COc1cc(NC(=O)c2ccccc2Cl)ccc1C(=O)N1CCCC(OCCN2CCCN(C)CC2)c2cc(Cl)ccc21 (stereo not drawn) [Example 180, 5-[2-(4-Methyl-1-homopiperazinyl)ethoxy]-7-chloro-1-[2-methoxy-4-(2-chlorobenzoylamino)benzoyl]-2,3,4,5-tetrahydro-1H-benzoazepine]",IC50,[3],284 nM
COc1cc(NC(=O)c2ccccc2Cl)ccc1C(=O)N1CCCC(CC(=O)N2CCN(c3ccccc3Cl)CC2)c2cc(Cl)ccc21 (stereo not drawn) [Example 181],IC50,[3],606 nM
CN(C)C(=O)CC1CCCN(C(=O)c2ccc(NC(=O)c3ccccc3OCCCCNC(C)(C)C)cc2)c2ccc(Cl)cc21 (stereo not drawn) [Example 182],IC50,[3],4710 nM
COc1cc(NC(=O)c2cccc3c2OCCC3)ccc1C(=O)N1CCCC(CC(=O)N2CCN(C)CC2)c2cc(Cl)ccc21 (stereo not drawn) [Example 183],IC50,[3],4410 nM
CC(=O)NC1CCN(CCCCOc2ccc(Cl)c(C(=O)Nc3ccc(C(=O)N4CCCCc5cc(Cl)ccc54)cc3)c2)CC1 [Example 184],IC50,[3],3670 nM
COc1cc(C(=O)N2CCCC(CC(=O)N3CCCN(C)CC3)c3cc(Cl)ccc32)ccc1NC(=O)c1ccccc1Br (stereo not drawn) [Example 185],IC50,[3],162 nM

# From patent US5622947A, “Benzoheterocyclic compounds and vasopressin antagonist and oxytocin antagonist compositions containing a benzoheterocyclic compound” (Otsuka Pharmaceutical Co., Ltd., priority 1992, dated 1997)
